Laboratory results from patent publication US11192891B2, “Diazaspiro ROCK inhibitors” (BRISTOL-MYERS SQUIBB COMPANY, priority 2017, dated 2021).

biological target: ROCK2 (Homo sapiens, UniProt O75116); experiment: ROCK kinase inhibition assay, FITC peptide substrate, LABCHIP 3000 readout; format: biochemical; settings: 5 μM ATP, 1.5 μM peptide substrate
Experimental: Compounds were dissolved in DMSO so that the final concentration of DMSO was <2%, and the reaction was initiated with Rho kinase variants. After incubation, the reaction was terminated by the addition of EDTA and the phosphorylated and non-phosphorylated peptides separated using a LABCHIP® 3000 Reader (Caliper Life Sciences). […] Compounds were tested in dose-response format, and the inhibition of kinase activity was calculated at each concentration of compound.

Chain of ROCK2 (O75116 whole entry, species assumed): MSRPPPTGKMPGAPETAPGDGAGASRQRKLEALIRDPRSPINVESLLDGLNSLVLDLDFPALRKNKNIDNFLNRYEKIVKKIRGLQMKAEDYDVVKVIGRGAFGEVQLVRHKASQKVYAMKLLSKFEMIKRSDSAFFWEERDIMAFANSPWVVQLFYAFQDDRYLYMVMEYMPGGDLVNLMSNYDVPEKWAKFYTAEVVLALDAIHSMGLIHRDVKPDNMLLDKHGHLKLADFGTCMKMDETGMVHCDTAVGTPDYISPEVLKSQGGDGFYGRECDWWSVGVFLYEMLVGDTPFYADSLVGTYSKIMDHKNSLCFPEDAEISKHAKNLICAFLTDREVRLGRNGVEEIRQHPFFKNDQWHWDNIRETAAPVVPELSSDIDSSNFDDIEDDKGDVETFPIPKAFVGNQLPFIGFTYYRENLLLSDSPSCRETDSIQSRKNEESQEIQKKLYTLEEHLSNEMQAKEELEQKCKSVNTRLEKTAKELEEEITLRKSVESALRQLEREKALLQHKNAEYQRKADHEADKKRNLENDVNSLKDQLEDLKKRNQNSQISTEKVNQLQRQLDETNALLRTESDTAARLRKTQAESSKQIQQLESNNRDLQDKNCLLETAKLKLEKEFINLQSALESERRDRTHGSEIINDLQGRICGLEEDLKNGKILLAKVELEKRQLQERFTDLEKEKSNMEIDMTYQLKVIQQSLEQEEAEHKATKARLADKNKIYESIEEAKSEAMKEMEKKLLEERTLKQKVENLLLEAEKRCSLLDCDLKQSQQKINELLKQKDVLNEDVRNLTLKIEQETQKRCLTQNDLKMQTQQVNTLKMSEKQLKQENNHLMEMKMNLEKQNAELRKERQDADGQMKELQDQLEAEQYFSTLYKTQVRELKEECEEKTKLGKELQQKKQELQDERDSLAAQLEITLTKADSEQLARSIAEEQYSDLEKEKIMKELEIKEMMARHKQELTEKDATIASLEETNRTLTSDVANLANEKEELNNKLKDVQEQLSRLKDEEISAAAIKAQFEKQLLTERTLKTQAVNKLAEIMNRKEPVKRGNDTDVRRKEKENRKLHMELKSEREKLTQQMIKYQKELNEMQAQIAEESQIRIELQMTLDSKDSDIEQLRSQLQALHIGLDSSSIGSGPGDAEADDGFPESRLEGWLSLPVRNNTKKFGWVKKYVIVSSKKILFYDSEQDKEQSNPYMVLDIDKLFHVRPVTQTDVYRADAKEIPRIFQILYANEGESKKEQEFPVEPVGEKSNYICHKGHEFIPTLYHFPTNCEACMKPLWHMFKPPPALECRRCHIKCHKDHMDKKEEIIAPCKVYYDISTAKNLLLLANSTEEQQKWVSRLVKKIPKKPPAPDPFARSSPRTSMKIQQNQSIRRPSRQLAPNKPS

| Structure (SMILES) | IC50 |
| --- | --- |
| Cn1nc(C(=O)N2CCC3(CC2)CCN(c2ccc(-c4cn[nH]c4)cc2)C3=O)c2ccccc21 [Example 6, 8-(1-methyl-1H-indazole-3-carbonyl)-2-[4-(1H-pyrazol-4-yl)phenyl]-2,8-diazaspiro[4.5]decan-1-one] | 143 nM |
| COc1cc(N2CCC3(CCN(C(=O)c4cc(C)cs4)CC3)C2=O)ccc1-c1cn[nH]c1 [Example 82, 2-[3-methoxy-4-(1H-pyrazol-4-yl)phenyl]-8-(4-methylthiophene-2-carbonyl)-2,8-diazaspiro[4.5]decan-1-one] | 109 nM |
| COc1cc(F)ccc1C(=O)N1CCC2(CC1)CCN(c1ccc(-c3cn[nH]c3)cc1)C2=O [Example 9, 8-(4-fluoro-2-methoxybenzoyl)-2-[4-(1H-pyrazol-4-yl)phenyl]-2,8-diazaspiro[4.5]decan-1-one] | 241 nM |
| COc1cc(N2CCC3(CCN(C(=O)c4ccc5ccccc5c4)CC3)C2=O)ccc1-c1cn[nH]c1 [Example 64, 2-[3-methoxy-4-(1H-pyrazol-4-yl)phenyl]-8-(naphthalene-2-carbonyl)-2,8-diazaspiro[4.5]decan-1-one] | 104 nM |
| COc1cc(N2CCC3(CCN(C(=O)c4cscn4)CC3)C2=O)ccc1-c1cn[nH]c1 [Example 86, 2-[3-methoxy-4-(1H-pyrazol-4-yl)phenyl]-8-(1,3-thiazole-4-carbonyl)-2,8-diazaspiro[4.5]decan-1-one] | 443 nM |
| COc1cc(N2CCC3(CCN(C(=O)c4cnc5ccccc5c4)CC3)C2=O)ccc1-c1cn[nH]c1 [Example 74, 2-[3-methoxy-4-(1H-pyrazol-4-yl)phenyl]-8-(quinoline-3-carbonyl)-2,8-diazaspiro[4.5]decan-1-one] | 78 nM |
| COc1ccc(C(=O)N2CCC3(CC2)CCN(c2cccc(-c4ccc5cn[nH]c5c4)c2)C3=O)cc1 [Example 50] | 1680 nM |
| COc1cc(N2CCC3(CCN(C(=O)c4ccc(Cl)cc4F)CC3)C2=O)ccc1-c1cn[nH]c1 [Example 75, 8-(4-chloro-2-fluorobenzoyl)-2-[3-methoxy-4-(1H-pyrazol-4-yl)phenyl]-2,8-diazaspiro[4.5]decan-1-one] | 50 nM |
| COc1cc(N2CCC3(CCN(C(=O)c4ccc(-n5cncn5)cc4)CC3)C2=O)ccc1-c1cn[nH]c1 [Example 106, 2-[3-methoxy-4-(1H-pyrazol-4-yl)phenyl]-8-[4-(1H-1,2,4-triazol-1-yl)benzoyl]-2,8-diazaspiro[4.5]decan-1-one] | 25 nM |
| COc1cc(N2CCC3(CCN(C(=O)c4ccc(Oc5ccc(Cl)cc5)cc4)CC3)C2=O)ccc1-c1cn[nH]c1 [Example 112, 8-[4-(4-chlorophenoxy)benzoyl]-2-[3-methoxy-4-(1H-pyrazol-4-yl)phenyl]-2,8-diazaspiro[4.5]decan-1-one] | 39 nM |
| COc1ccc(C(=O)N2CCC3(CC2)CCN(c2ccc(-c4cn[nH]c4)c(OC)c2)C3=O)cc1 [Example 13, 2-[3-methoxy-4-(1H-pyrazol-4-yl)phenyl]-8-(4-methoxybenzoyl)-2,8-diazaspiro[4.5]decan-1-one] | 8 nM |
| O=C(c1ccc(OC(F)(F)F)cc1)N1CCC2(CC1)CCN(c1ccc(-c3cn[nH]c3)cc1)C2=O [Example 10, 2-[4-(1H-pyrazol-4-yl)phenyl]-8-[4-(trifluoromethoxy)benzoyl]-2,8-diazaspiro[4.5]decan-1-one] | 95 nM |
| O=C(C1CC1)N1CCC2(CC1)CCN(c1ccc(-c3cn[nH]c3)cc1)C2=O [Example 7, 8-cyclopropanecarbonyl-2-[4-(1H-pyrazol-4-yl)phenyl]-2,8-diazaspiro[4.5]decan-1-one] | 875 nM |
| COc1cc(N2CCC3(CCN(C(=O)c4cc5ccccc5o4)CC3)C2=O)ccc1-c1cn[nH]c1 [Example 70, 8-(1-benzofuran-2-carbonyl)-2-[3-methoxy-4-(1H-pyrazol-4-yl)phenyl]-2,8-diazaspiro[4.5]decan-1-one] | 529 nM |
| COc1ccc(C(=O)N2CCC3(CC2)CCN(c2ccc(-c4cn[nH]c4)c(OC)c2)C3=O)c(Cl)c1 [Example 122, 8-(2-chloro-4-methoxybenzoyl)-2-[3-methoxy-4-(1H-pyrazol-4-yl)phenyl]-2,8-diazaspiro[4.5]decan-1-one] | 11 nM |
| COc1ccc(C(=O)N2CCC3(CC2)CN(c2ccc(-c4cn[nH]c4)cc2)C3=O)cc1 [Example 40, 7-(4-methoxybenzoyl)-2-[4-(1H-pyrazol-4-yl)phenyl]-2,7-diazaspiro[3.5]nonan-1-one] | 132 nM |
| COc1cc(N2CCC3(CCN(C(=O)c4ccoc4)CC3)C2=O)ccc1-c1cn[nH]c1 [Example 65, 8-(furan-3-carbonyl)-2-[3-methoxy-4-(1H-pyrazol-4-yl)phenyl]-2,8-diazaspiro[4.5]decan-1-one] | 752 nM |

More lines, now with the values ahead:

| IC50 | Structure (SMILES) |
| --- | --- |
| 2.7 nM | COc1cc(N2CCC3(CCN(C(=O)c4ccc(N5CCN(Cc6nccs6)CC5)cc4)CC3)C2=O)ccc1-c1cn[nH]c1 [Example 236, 2-[3-methoxy-4-(1H-pyrazol-4-yl)phenyl]-8-(4-{4-[(1,3-thiazol-2-yl)methyl]piperazin-1-yl}benzoyl)-2,8-diazaspiro[4.5]decan-1-one] |
| 285 nM | COc1ccc(S(=O)(=O)N2CCC3(CCN(c4ccc(-c5cn[nH]c5)c(OC)c4)C3=O)CC2)cc1F [Example 212, 8-(3-fluoro-4-methoxybenzenesulfonyl)-2-[3-methoxy-4-(1H-pyrazol-4-yl)phenyl]-2,8-diazaspiro[4.5]decan-1-one] |
| 13 nM | COc1cc(N2CCC3(CCN(C(=O)c4ccc(N5CCCC5=O)cc4)CC3)C2=O)ccc1-c1cn[nH]c1 [Example 128, 2-[3-methoxy-4-(1H-pyrazol-4-yl)phenyl]-8-[4-(2-oxopyrrolidin-1-yl)benzoyl]-2,8-diazaspiro[4.5]decan-1-one] |
| 2.3 nM | COc1cc(N2CCC3(CCN(C(=O)c4ccc5c(c4)nc(C)n5C)CC3)C2=O)ccc1-c1cn[nH]c1 [Example 179, 8-(1,2-dimethyl-1H-1,3-benzodiazole-5-carbonyl)-2-[3-methoxy-4-(1H-pyrazol-4-yl)phenyl]-2,8-diazaspiro[4.5]decan-1-one] |
| 4.2 nM | COc1cc(N2CCC3(CCN(C(=O)c4ccc(-n5ccncc5=O)cc4F)CC3)C2=O)ccc1-c1cn[nH]c1 [Example 136, 8-[2-fluoro-4-(2-oxo-1,2-dihydropyrazin-1-yl)benzoyl]-2-[3-methoxy-4-(1H-pyrazol-4-yl)phenyl]-2,8-diazaspiro[4.5]decan-1-one] |
| 1.5 nM | COc1cc(N2CCC3(CCN(C(=O)c4ccc(N5CCN(Cc6csnn6)CC5)cc4)CC3)C2=O)ccc1-c1cn[nH]c1 [Example 224, 2-[3-methoxy-4-(1H-pyrazol-4-yl)phenyl]-8-(4-{4-[(1,2,3-thiadiazol-4-yl)methyl]piperazin-1-yl}benzoyl)-2,8-diazaspiro[4.5]decan-1-one] |
| 23 nM | COc1cc(N2CCC3(CCN(C(=O)c4ccc(-c5cnco5)cc4)CC3)C2=O)ccc1-c1cn[nH]c1 [Example 160, 2-[3-methoxy-4-(1H-pyrazol-4-yl)phenyl]-8-[4-(1,3-oxazol-5-yl)benzoyl]-2,8-diazaspiro[4.5]decan-1-one] |
| 456 nM | COc1cc(N2CCC3(CCN(S(=O)(=O)c4ccc(S(N)(=O)=O)cc4)CC3)C2=O)ccc1-c1cn[nH]c1 [Example 213, 4-({2-[3-methoxy-4-(1H-pyrazol-4-yl)phenyl]-1-oxo-2,8-diazaspiro[4.5]decan-8-yl}sulfonyl)benzene-1-sulfonamide] |
| 31 nM | COc1cc(N2CCC3(CCN(C(=O)c4cc(C)n(C)n4)CC3)C2=O)ccc1-c1cn[nH]c1 [Example 188, 8-(1,5-dimethyl-1H-pyrazole-3-carbonyl)-2-[3-methoxy-4-(1H-pyrazol-4-yl)phenyl]-2,8-diazaspiro[4.5]decan-1-one] |
| 23 nM | COc1cc(N2CCC3(CCN(C(=O)c4ccc(Cn5ccnc5)cc4)CC3)C2=O)ccc1-c1cn[nH]c1 [Example 183, 8-{4-[(1H-imidazol-1-yl)methyl]benzoyl}-2-[3-methoxy-4-(1H-pyrazol-4-yl)phenyl]-2,8-diazaspiro[4.5]decan-1-one] |
| 54 nM | COc1ccc2c(c1)cc(C(=O)N1CCC3(CC1)CCN(c1ccc(-c4cn[nH]c4)c(OC)c1)C3=O)n2C [Example 156, 8-(5-methoxy-1-methyl-1H-indole-2-carbonyl)-2-[3-methoxy-4-(1H-pyrazol-4-yl)phenyl]-2,8-diazaspiro[4.5]decan-1-one] |
| 1.6 nM | COc1cc(N2CCC3(CCN(C(=O)c4ccc(N5CCN(CCC(C)C)CC5)cc4)CC3)C2=O)ccc1-c1cn[nH]c1 [Example 238, 2-[3-methoxy-4-(1H-pyrazol-4-yl)phenyl]-8-{4-[4-(3-methylbutyl)piperazin-1-yl]benzoyl}-2,8-diazaspiro[4.5]decan-1-one] |
| 62 nM | COc1cc(N2CCC3(CCN(C(=O)c4ccc(-n5cccn5)cc4)CC3)C2=O)ccc1-c1cn[nH]c1 [Example 124, 2-[3-methoxy-4-(1H-pyrazol-4-yl)phenyl]-8-[4-(1H-pyrazol-1-yl)benzoyl]-2,8-diazaspiro[4.5]decan-1-one] |
| 1480 nM | COc1cc(N2CCC3(CCN(C(=O)Nc4cccnc4)CC3)C2=O)ccc1-c1cn[nH]c1 [Example 214, 2-[3-methoxy-4-(1H-pyrazol-4-yl)phenyl]-1-oxo-N-(pyridin-3-yl)-2,8-diazaspiro[4.5]decane-8-carboxamide] |
| 75 nM | COc1cc(N2CCC3(CCN(C(=O)c4ccc(-c5noc(C(C)C)n5)cc4)CC3)C2=O)ccc1-c1cn[nH]c1 [Example 134, 2-[3-methoxy-4-(1H-pyrazol-4-yl)phenyl]-8-{4-[5-(propan-2-yl)-1,2,4-oxadiazol-3-yl]benzoyl}-2,8-diazaspiro[4.5]decan-1-one] |
| 4.5 nM | COc1cc(N2CCC3(CCN(C(=O)c4ccc5c(ccn5C)c4)CC3)C2=O)ccc1-c1cn[nH]c1 [Example 153, 2-[3-methoxy-4-(1H-pyrazol-4-yl)phenyl]-8-(1-methyl-1H-indole-5-carbonyl)-2,8-diazaspiro[4.5]decan-1-one] |
